# Source: patent US5880134A, “Method for using ergoline compounds to effect physiological and pathological functions at the 5-HT7 receptor” (Eli Lilly and Company, priority 1997, dated 1999)
# What was measured:
# [1] = tested on: rat 5-HT7 receptor; conditions: cited from earlier work; for pharmacological profile (rank order of affinity): rat 5-HT7, [125I]LSD and [3H]5-HT
# [2] = molecular target: T1, human 5-HT7 receptor (Homo sapiens, UniProt P34969); conditions: cited from earlier work; for pharmacological profile (rank order of affinity): human 5-HT7, [3H]5-HT competition
# T1 sequence (P34969 1-445 isoform P34969-2): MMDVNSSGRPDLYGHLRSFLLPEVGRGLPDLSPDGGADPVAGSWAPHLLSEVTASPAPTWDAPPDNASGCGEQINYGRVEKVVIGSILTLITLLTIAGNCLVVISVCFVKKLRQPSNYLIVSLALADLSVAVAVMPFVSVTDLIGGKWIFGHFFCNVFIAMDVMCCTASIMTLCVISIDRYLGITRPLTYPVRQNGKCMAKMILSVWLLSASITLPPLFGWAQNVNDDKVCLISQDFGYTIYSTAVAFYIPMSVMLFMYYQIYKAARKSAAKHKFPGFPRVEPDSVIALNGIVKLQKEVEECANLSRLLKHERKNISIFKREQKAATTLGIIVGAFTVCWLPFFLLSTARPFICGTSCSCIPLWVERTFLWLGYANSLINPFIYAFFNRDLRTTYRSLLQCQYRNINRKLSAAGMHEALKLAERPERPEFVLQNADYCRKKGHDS
# [3] = molecular target: T2, 5-HT7 receptor in the dog coronary artery (Canis lupus familiaris, UniProt A0A8I3S709); assay: 5-HT-induced relaxation of endothelium-denuded canine coronary artery rings precontracted with PGF2α (Schild / dissociation constant analysis); assay type: cell-based; conditions: for relaxant activity in canine coronary artery: agonist; for pEC50 values between vehicle and compound-treated tissues: 1 μM, p<0.05, Student's t-test; for blockade of 5-HT-induced relaxation: compounds III and V 1 μM, compound IV 10-100 nM, 1 hr incubation; for slope of the Schild regression: Schild plot; for slope: Table 2, Schild regression
# T2 construct: The left anterior descending and circumflex coronary arteries were dissected from the hearts; from tissue; host or cells: dog left anterior descending and circumflex coronary artery rings (mongrel dogs), endothelium removed
# T2 sequence (A0A8I3S709 1-435): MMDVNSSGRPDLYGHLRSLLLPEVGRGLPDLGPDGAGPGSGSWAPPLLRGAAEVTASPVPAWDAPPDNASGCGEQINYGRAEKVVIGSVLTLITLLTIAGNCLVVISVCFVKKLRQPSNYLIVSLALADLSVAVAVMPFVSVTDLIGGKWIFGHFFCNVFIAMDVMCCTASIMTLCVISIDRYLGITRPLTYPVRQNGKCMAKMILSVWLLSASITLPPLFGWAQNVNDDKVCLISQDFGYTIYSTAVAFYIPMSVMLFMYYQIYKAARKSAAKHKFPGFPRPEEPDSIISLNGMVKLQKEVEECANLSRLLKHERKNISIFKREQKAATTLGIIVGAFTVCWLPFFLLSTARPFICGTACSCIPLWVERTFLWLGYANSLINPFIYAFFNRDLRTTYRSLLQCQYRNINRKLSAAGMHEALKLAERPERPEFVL
# Experimental: (§1) Hearts were obtained from mongrel dogs anesthetized with sodium pentobarbital (30 mg/kg, i.v.) and placed in oxygenated modified Krebs' solution of the following composition (millimolar): NaCl, 118; KCl, 4.6; CaCl2, 1.6; KH2 PO4, 1.2; MgSO4 1.2, glucose, 10; NaHCO3 24.8 (pH 7.4). The left anterior descending and circumflex coronary arteries were dissected from the hearts, cleaned of fat and adhering tissue and cut into rings (approximately 2-3 mm outer diameter and 4-5 mm in length). The intimal surface of the rings was gently rubbed with a pair of forceps to remove the endothelium. Tissues were then mounted between two stainless steel hooks and placed in 10 ml organ chambers constantly exposed to oxygenated modified Krebs' solution (95% O2 /5% CO2; pH 7.4; 37° C.). Tissues were equilibrated for 1 hour under an initial optimal passive force of 4 g determined previously from length-tension experiments. The buffer was replaced every 15 minutes during equilibration. Isometric force was measured with Statham UC3 force transducers connected to a Beckman dynograph (R611). After 1 hr equilibration, tissues were depolarized twice with 50 mM KCl for 30 min with a 20 min washing period between. The integrity of the endothelium was examined with acetylcholine (1 μM), bradykinin (100 nM), or the ionophore A23187 (1 μM). Rings that relaxed to these agents were not used in this study.
# (§2) Cumulative concentration-response curves to 5-HT were generated in tissues incubated with either vehicle or antagonist for 1 hr. In some experiments contraction was measured in tissues under basal tone upon the cumulative addition of 5-HT. These tissues were treated with prazosin (1 μM) to block any potential a adrenoceptor activation and in the absence or presence of antagonist.
# (§3) All results are expressed as mean ±S.E. where "n" represents the number of rings examined. No more than two rings were used from each animal for each compound studied. The relaxation data is expressed as percent relaxation of the contraction produced by PGF2α. The contraction data is expressed as percent of a maximal KCl (50 mM) contraction. The EC50 was the concentration of the agonist producing half-maximal response and was determined by least squares linear regression analysis of the linear portion or the agonist concentration-response curve and expressed as -log C50 (pEC50)
# Apparent antagonist dissociation constants (KB) were determined for each antagonist according to the following equation: [formula] where (B) is the concentration of the antagonist and dose ratio is the EC50 of the agonist in the presence of the antagonist divided by the EC50 of the agonist in vehicle treated tissues. […] Significant differences between vehicle and antagonist treated tissues were determined with Student's t-test. The alpha value was set a priori at 0.05.
# The data was also analyzed in accord with the procedure of Arunlakshana and Schild (1959). The dose ratio was determined at various concentrations of antagonist compound II or compound IV. If blockade is competitive under equilibrium conditions a plot of the logarithm (dose ratio--1) against the negative logarithm of the molar concentration of antagonist should yield a straight line whose slope is not different from unity and whose intercept on the abscissa is the pA2, which is generally considered to be equivalent to -log KB.
# [4] = tested on: contractile 5-HT receptor in the canine coronary artery; assay: Contraction of endothelium-denuded canine coronary artery under basal tone; assay type: cell-based
# Experimental: as §1
# as §2, with “Tissues prepared as described in Example 1 were precontracted with PGF2α (10 μM) which produced a tonic contraction that remained at or above 92.8±2.1% (n=14) of the original maximum force throughout the experiment. Cumulative” for “Cumulative”
# as §3
# [5] = tested on: contractile 5-HT receptor in the canine coronary artery; conditions: agonist alone, vessels under basal tone, as previously reported (Cushing et al.); cited from earlier work
# [6] = Bioavailability after oral administration in rats; assay type: in vivo, rat
# [7] = molecular target: T1, human 5-HT7 receptor; assay: Receptor binding at the human 5-HT7 receptor
# From the text: The general chemical structure for three particularly useful compounds of the invention (compounds III-V) are shown below: [drawing 3]
# The KD and --logKB value for compound II, a known 5-HT7 antagonist, and two compounds employed by the present invention, compound III and IV, are shown in Table 1.
# [8] = tested on: 5-HT7 receptor; conditions: expressed in mammalian cells; cited from earlier work
# [9] = compared with ester compounds II and V
compound,measurement,setting,value
"CCCN(CCC)C1CCc2cccc(O)c2C1 (stereo not shown) [8-OH DPAT, 8-hydroxy-2-(di-n-propyl-amino)-tetralin]",pharmacological profile (rank order of affinity),[1],5CT>5MeOT≥5HT>8-OH-DPAT
same,pharmacological profile (rank order of affinity),[2],5CT>5 MeOT≥5HT>8-OH DPAT
"NCCc1c[nH]c2ccc(C(N)=O)cc12 [Compound 5-CT, 5-carboxamidotryptamine]",pharmacological profile (rank order of affinity),[1],5CT>5MeOT≥5HT>8-OH-DPAT
same,binding affinity of 5CT over serotonin,[1]; rat 5-HT7,higher binding affinity of 5CT over serotonin
same,relaxant activity in canine coronary artery,[3],potent relaxant agonist
same,affinity of canine coronary artery relaxant receptor for 5CT versus serotonin,[3],highest affinity for 5-HT7 receptors
same,affinity of canine coronary artery relaxant receptor for 5CT versus serotonin,[3]; listed as 5CT,greater affinity for 5CT than for the endogenous agonist serotonin
same,contraction by agonist,"[4]; agonist alone, under basal tone or precontracted",did not significantly contract coronary arteries
same,contraction by agonist in the presence of compound IV,"[4]; compound IV 1 μM, basal tone",concentration-dependently contracted canine coronary artery
same,pharmacological profile (rank order of affinity),[2],5CT>5 MeOT≥5HT>8-OH DPAT
same,affinity of 5CT over serotonin,[2]; human 5-HT7,greater affinity of 5CT over serotonin
"NCCc1c[nH]c2ccc(O)cc12 [Compound 5-HT, 5-hydroxytryptamine]",pharmacological profile (rank order of affinity),[1],5CT>5MeOT≥5HT>8-OH-DPAT
same,contractile response of agonist,[5],produced a biphasic contractile response
same,pharmacological profile (rank order of affinity),[2],5CT>5 MeOT≥5HT>8-OH DPAT
"COc1ccc2[nH]cc(CCN)c2c1 [Compound 5-MeOT, 5-methoxytryptamine]",pharmacological profile (rank order of affinity),[1],5CT>5MeOT≥5HT>8-OH-DPAT
same,contractile response of agonist,[5],produced a biphasic contractile response
same,pharmacological profile (rank order of affinity),[2],5CT>5 MeOT≥5HT>8-OH DPAT
CC(C)n1cc2c3c(cccc31)C1CC(C(=O)NC3CCCCC3)CN(C)C1C2 (stereo not shown) [Compound III],Kb,[3],0.2 µM
same,pEC50 values between vehicle and compound-treated tissues,[3],significantly different
same,blockade of 5-HT-induced relaxation,[3]; compound II 0.3-10 μM,blocked 5-HT-induced relaxation in endothelium-denuded canine coronary artery rings in a competitive manner
same,bioavailability,[6]; [9],greater bioavailability than the ester compounds II and V
same,binding affinity to the human 5-HT7 receptor (in words),[7],high binding affinity
CC(O)C(C)OC(=O)C1CC2c3cccc4c3c(cn4C(C)C)CC2N(C)C1 (stereo not shown) [Compound II],Kb,[3],0.316 µM
same,Schild slope versus unity,[3]; FIG. 1 lower panel,not significantly different from unity
same,slope of the Schild regression,[3],0.92
same,slope,[3],0.92
same,maximum relaxant response to 5-HT,[3]; compound II 0.3-10 μM,did not alter the maximum relaxant response
same,blockade of 5-HT-induced relaxation,[3]; compound II 0.3-10 μM,shifted the concentration-response curve to 5-HT significantly to the right
CC(C)n1cc2c3c(cccc31)C1CC(C(=O)NC3CCCC3O)CN(C)C1C2 (stereo not shown) [Compound IV],Kb,[3],0.00501 µM
same,slope of the Schild regression,[3],0.98
same,slope,[3],0.98
same,blockade of 5-HT-induced relaxation,[3]; compound II 0.3-10 μM,blocked 5-HT-induced relaxation in endothelium-denuded canine coronary artery rings in a competitive manner
same,bioavailability,[6]; [9],greater bioavailability than the ester compounds II and V
same,binding affinity to the human 5-HT7 receptor (in words),[7],high binding affinity
same,effect on contractile response produced by 5-HT and 5-MeOT,"[4]; 1 μM, basal tone",not affecting the contractile response
same,effect on relaxant phase of 5-HT and 5-MeOT response,"[4]; 1 μM, basal tone",significantly attenuated the relaxant phase
same,effect on sumatriptan-induced contraction,"[4]; 1 μM, basal tone, FIG. 7",did not significantly affect sumatriptan-induced contraction
COC1CCC(OC(=O)C2CC3c4cccc5c4c(cn5C(C)C)CC3N(C)C2)CC1 (stereo not shown) [Compound V],Kb,[3],0.398 µM
same,pEC50 values between vehicle and compound-treated tissues,[3],significantly different
same,blockade of 5-HT-induced relaxation,[3]; compound II 0.3-10 μM,blocked 5-HT-induced relaxation in an apparently competitive manner
same,bioavailability,[6]; compared with compound II,higher bioavailability than compound II
CCCCC[C@H](O)/C=C/[C@@H]1[C@@H](C/C=C\CCCC(=O)O)[C@@H](O)C[C@H]1O [PGF2α],contraction retained throughout the experiment,"[3]; PGF2α 10 μM, of the original maximum force, n=14",≥ 92.8±2.1%
CN(C)CCC=C1c2ccccc2CCc2ccccc21 [amitriptyline],affinity for the 5-HT7 receptor,[8],high affinity
CN1CCN(C2=Nc3cc(Cl)ccc3Nc3ccccc32)CC1 [clozapine],affinity for the 5-HT7 receptor,[8],high affinity
CN1CCN(C2=Nc3ccccc3Oc3ccc(Cl)cc32)CC1 [loxapine],affinity for the 5-HT7 receptor,[8],high affinity
CNS(=O)(=O)Cc1ccc2[nH]cc(CCN(C)C)c2c1 [sumatriptan],relaxant activity in canine coronary artery,[3],lacking relaxant activity
